Assay results taken from ChEMBL document CHEMBL1138295, “Multiple N-methylation by a designed approach enhances receptor selectivity” (J Med Chem, 2007).
Square brackets hold non-standard residues; d marks the D form. Peptide text beside a SMILES is read from it.

Test system: not listed separately
Assay: Permeability across human Caco-2 cell monolayer
Assay type: ADME, cell-based
`CC(C)C[C@@H]1NC(=O)[C@@H](Cc2ccccc2)NC(=O)[C@H](CC(=O)O)NC(=O)CNC(=O)[C@H](CCCN=C(N)N)N(C)C(=O)CNC1=O` showed a Papp of 0.03 ×10⁻⁶ cm/s.
`CC(C)C[C@H]1C(=O)NCC(=O)N[C@@H](CCCN=C(N)N)C(=O)NCC(=O)N[C@@H](CC(=O)O)C(=O)N[C@H](Cc2ccccc2)C(=O)N1C` showed a Papp of 0.03 ×10⁻⁶ cm/s.
Work on `CC(C)C[C@H]1C(=O)NCC(=O)N[C@@H](CCCN=C(N)N)C(=O)NCC(=O)N[C@@H](CC(=O)O)C(=O)N(C)[C@H](Cc2ccccc2)C(=O)N1C` yielded a Papp of 0.03 ×10⁻⁶ cm/s.
Compound `CC(C)C[C@@H]1NC(=O)[C@@H](Cc2ccccc2)NC(=O)[C@H](CC(=O)O)NC(=O)CNC(=O)[C@H](CCCNC(=N)N)NC(=O)CNC1=O` (cyclo(GRGD[dF]L)) has a Papp of 0.03 ×10⁻⁶ cm/s.
With `CC(C)C[C@@H]1NC(=O)[C@@H](Cc2ccccc2)N(C)C(=O)[C@H](CC(=O)O)NC(=O)CNC(=O)[C@H](CCCN=C(N)N)NC(=O)CNC1=O` the Papp was 0.03 ×10⁻⁶ cm/s.
In the case of `CC(C)C[C@H]1C(=O)NCC(=O)N(C)[C@@H](CCCNC(=N)N)C(=O)NCC(=O)N[C@@H](CC(=O)O)C(=O)N[C@H](Cc2ccccc2)C(=O)N1C`, the Papp is reported as 0.03 ×10⁻⁶ cm/s.
Work on `CC(C)C[C@@H]1NC(=O)[C@@H](Cc2ccccc2)N(C)C(=O)[C@H](CC(=O)O)NC(=O)CNC(=O)[C@H](CCCNC(=N)N)N(C)C(=O)CNC1=O` yielded a Papp of 0.03 ×10⁻⁶ cm/s.
For `OC[C@@H](O)[C@@H](O)[C@H](O)[C@H](O)CO` [MANNITOL], the Papp was 0.9 ×10⁻⁶ cm/s.
In the case of `CC(C)C[C@H]1C(=O)NCC(=O)N(C)[C@@H](CCCN=C(N)N)C(=O)NCC(=O)N[C@@H](CC(=O)O)C(=O)N(C)[C@H](Cc2ccccc2)C(=O)N1C`, the Papp is reported as 0.03 ×10⁻⁶ cm/s.

Target: Integrin alpha-IIb/beta-3 (Homo sapiens, UniProt P05106+P08514)
Sequence (P05106 27-788 limits assumed): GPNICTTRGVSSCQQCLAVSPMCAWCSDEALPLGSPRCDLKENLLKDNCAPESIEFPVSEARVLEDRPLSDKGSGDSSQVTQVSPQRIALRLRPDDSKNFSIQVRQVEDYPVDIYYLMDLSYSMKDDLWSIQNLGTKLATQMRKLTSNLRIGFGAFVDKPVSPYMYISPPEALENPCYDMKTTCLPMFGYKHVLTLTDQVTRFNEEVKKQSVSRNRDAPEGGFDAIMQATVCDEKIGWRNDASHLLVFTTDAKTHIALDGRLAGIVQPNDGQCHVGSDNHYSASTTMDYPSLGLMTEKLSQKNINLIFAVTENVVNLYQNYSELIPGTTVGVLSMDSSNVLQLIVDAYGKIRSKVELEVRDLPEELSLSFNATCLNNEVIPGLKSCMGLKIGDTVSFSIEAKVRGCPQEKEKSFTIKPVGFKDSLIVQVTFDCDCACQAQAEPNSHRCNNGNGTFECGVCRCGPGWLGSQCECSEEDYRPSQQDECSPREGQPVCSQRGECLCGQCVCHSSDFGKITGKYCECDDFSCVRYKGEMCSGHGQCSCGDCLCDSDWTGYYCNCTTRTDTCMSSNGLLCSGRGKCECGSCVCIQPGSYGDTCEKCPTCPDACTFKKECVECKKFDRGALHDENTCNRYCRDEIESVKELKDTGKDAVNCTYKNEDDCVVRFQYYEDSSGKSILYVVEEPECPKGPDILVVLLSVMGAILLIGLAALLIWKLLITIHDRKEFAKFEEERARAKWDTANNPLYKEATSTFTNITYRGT
Sequence (P08514 32-887 limits assumed): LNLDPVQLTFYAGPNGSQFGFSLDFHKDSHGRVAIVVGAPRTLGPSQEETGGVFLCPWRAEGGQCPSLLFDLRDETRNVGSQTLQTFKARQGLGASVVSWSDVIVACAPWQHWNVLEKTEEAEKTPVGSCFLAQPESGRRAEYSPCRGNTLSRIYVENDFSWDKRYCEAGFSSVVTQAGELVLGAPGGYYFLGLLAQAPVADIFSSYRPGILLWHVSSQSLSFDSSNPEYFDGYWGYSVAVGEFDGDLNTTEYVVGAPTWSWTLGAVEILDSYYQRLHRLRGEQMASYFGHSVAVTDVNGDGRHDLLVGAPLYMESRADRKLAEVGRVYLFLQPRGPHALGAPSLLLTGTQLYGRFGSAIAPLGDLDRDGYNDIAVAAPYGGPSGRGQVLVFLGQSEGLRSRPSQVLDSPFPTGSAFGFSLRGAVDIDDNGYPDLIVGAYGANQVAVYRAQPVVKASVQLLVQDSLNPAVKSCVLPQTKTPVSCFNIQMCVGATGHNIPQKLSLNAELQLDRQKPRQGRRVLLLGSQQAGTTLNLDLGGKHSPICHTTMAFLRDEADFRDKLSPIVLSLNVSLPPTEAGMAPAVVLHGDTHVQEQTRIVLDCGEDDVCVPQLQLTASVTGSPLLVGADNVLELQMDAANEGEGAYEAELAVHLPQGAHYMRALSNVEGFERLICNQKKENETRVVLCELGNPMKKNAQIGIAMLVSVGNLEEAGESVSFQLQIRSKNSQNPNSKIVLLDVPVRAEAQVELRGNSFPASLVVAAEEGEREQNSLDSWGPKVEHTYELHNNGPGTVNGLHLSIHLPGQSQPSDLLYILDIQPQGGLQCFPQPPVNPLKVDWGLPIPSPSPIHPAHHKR
Sequence (P08514 891-1039 limits assumed): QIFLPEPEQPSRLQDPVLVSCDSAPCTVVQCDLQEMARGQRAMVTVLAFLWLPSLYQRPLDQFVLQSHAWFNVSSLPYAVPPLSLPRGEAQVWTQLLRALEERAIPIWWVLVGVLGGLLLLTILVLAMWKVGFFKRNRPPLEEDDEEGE
Assay: Binding affinity to integrin alpha-2b-beta-3 receptor by solid phase binding assay
Assay type: protein-complex assay
With `CC(C)C[C@@H]1NC(=O)[C@@H](Cc2ccccc2)NC(=O)[C@H](CC(=O)O)NC(=O)CNC(=O)[C@H](CCCN=C(N)N)N(C)C(=O)CNC1=O` the IC50 was 12 nM.
With `CC(C)C[C@H]1C(=O)NCC(=O)N[C@@H](CCCN=C(N)N)C(=O)NCC(=O)N[C@@H](CC(=O)O)C(=O)N[C@H](Cc2ccccc2)C(=O)N1C` the IC50 was 560 nM.
`CC(C)C[C@H]1C(=O)NCC(=O)N[C@@H](CCCN=C(N)N)C(=O)NCC(=O)N[C@@H](CC(=O)O)C(=O)N(C)[C@H](Cc2ccccc2)C(=O)N1C` showed an IC50 of 620 nM.
`CC(C)C[C@@H]1NC(=O)[C@@H](Cc2ccccc2)NC(=O)[C@H](CC(=O)O)NC(=O)CNC(=O)[C@H](CCCNC(=N)N)NC(=O)CNC1=O` (cyclo(GRGD[dF]L)) showed an IC50 of 195 nM.
For `CC(C)C[C@@H]1NC(=O)[C@@H](Cc2ccccc2)N(C)C(=O)[C@H](CC(=O)O)NC(=O)CNC(=O)[C@H](CCCN=C(N)N)NC(=O)CNC1=O`, the IC50 was 2000 nM.
`CC(C)C[C@H]1C(=O)NCC(=O)N(C)[C@@H](CCCNC(=N)N)C(=O)NCC(=O)N[C@@H](CC(=O)O)C(=O)N[C@H](Cc2ccccc2)C(=O)N1C` gave an IC50 of 15 nM.
`CC(C)C[C@@H]1NC(=O)[C@@H](Cc2ccccc2)N(C)C(=O)[C@H](CC(=O)O)NC(=O)CNC(=O)[C@H](CCCNC(=N)N)N(C)C(=O)CNC1=O` showed an IC50 of 165 nM.
`CC(C)C[C@H]1C(=O)NCC(=O)N(C)[C@@H](CCCN=C(N)N)C(=O)NCC(=O)N[C@@H](CC(=O)O)C(=O)N(C)[C@H](Cc2ccccc2)C(=O)N1C` gave an IC50 of 30 nM.

Target: Integrin alpha-V/beta-3 (Homo sapiens, UniProt P05106+P06756)
Sequence (P05106 27-788 limits assumed): as the sequence (P05106 27-788 limits assumed) above
Sequence (P06756 31-889 limits assumed): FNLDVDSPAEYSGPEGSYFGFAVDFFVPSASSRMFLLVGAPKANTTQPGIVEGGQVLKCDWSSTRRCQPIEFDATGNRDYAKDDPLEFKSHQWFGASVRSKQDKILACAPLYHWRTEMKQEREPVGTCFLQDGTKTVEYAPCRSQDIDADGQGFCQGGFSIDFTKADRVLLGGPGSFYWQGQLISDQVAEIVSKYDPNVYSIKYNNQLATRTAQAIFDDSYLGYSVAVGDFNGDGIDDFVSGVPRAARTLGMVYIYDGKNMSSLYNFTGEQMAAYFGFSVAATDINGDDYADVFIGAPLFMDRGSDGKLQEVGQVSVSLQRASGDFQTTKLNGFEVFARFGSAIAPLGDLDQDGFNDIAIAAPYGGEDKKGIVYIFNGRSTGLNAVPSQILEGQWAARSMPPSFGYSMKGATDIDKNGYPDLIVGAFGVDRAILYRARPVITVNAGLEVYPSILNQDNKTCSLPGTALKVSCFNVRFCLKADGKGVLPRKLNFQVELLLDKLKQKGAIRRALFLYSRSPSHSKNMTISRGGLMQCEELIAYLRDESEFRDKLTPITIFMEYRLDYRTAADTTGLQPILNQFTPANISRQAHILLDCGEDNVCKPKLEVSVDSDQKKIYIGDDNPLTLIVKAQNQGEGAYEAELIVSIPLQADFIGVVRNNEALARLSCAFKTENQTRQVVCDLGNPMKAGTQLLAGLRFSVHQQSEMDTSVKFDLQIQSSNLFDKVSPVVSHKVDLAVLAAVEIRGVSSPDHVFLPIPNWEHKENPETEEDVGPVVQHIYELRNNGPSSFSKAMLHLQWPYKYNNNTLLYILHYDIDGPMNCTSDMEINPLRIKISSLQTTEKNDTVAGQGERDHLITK
Sequence (P06756 891-1048 limits assumed): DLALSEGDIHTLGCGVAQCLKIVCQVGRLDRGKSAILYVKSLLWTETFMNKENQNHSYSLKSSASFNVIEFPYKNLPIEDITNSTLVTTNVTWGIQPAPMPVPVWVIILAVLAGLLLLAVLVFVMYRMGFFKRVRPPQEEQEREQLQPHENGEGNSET
Assay: Binding affinity to integrin alpha-v-beta-3 receptor by solid phase binding assay
Assay type: protein-complex assay
In the case of `CC(C)C[C@@H]1NC(=O)[C@@H](Cc2ccccc2)NC(=O)[C@H](CC(=O)O)NC(=O)CNC(=O)[C@H](CCCN=C(N)N)N(C)C(=O)CNC1=O`, the IC50 is reported as 770 nM.
With `CC(C)C[C@H]1C(=O)NCC(=O)N[C@@H](CCCN=C(N)N)C(=O)NCC(=O)N[C@@H](CC(=O)O)C(=O)N[C@H](Cc2ccccc2)C(=O)N1C` the IC50 was 103 nM.
`CC(C)C[C@H]1C(=O)NCC(=O)N[C@@H](CCCN=C(N)N)C(=O)NCC(=O)N[C@@H](CC(=O)O)C(=O)N(C)[C@H](Cc2ccccc2)C(=O)N1C` gave an IC50 of 1200 nM.
`CC(C)C[C@@H]1NC(=O)[C@@H](Cc2ccccc2)NC(=O)[C@H](CC(=O)O)NC(=O)CNC(=O)[C@H](CCCNC(=N)N)NC(=O)CNC1=O` (cyclo(GRGD[dF]L)) gave an IC50 of 100 nM.
Compound `CC(C)C[C@@H]1NC(=O)[C@@H](Cc2ccccc2)N(C)C(=O)[C@H](CC(=O)O)NC(=O)CNC(=O)[C@H](CCCN=C(N)N)NC(=O)CNC1=O` has an IC50 of 490 nM.
Compound `CC(C)C[C@H]1C(=O)NCC(=O)N(C)[C@@H](CCCNC(=N)N)C(=O)NCC(=O)N[C@@H](CC(=O)O)C(=O)N[C@H](Cc2ccccc2)C(=O)N1C` has an IC50 of 1300 nM.
With `CC(C)C[C@@H]1NC(=O)[C@@H](Cc2ccccc2)N(C)C(=O)[C@H](CC(=O)O)NC(=O)CNC(=O)[C@H](CCCNC(=N)N)N(C)C(=O)CNC1=O` the IC50 was 2730 nM.
In the case of `CC(C)C[C@H]1C(=O)NCC(=O)N(C)[C@@H](CCCN=C(N)N)C(=O)NCC(=O)N[C@@H](CC(=O)O)C(=O)N(C)[C@H](Cc2ccccc2)C(=O)N1C`, the IC50 is reported as 12200 nM.

Species on record: Homo sapiens
Assay: Selectivity for integrin alpha2bbeta3 receptor over integrin alphavbeta3 receptor
`CC(C)C[C@@H]1NC(=O)[C@@H](Cc2ccccc2)N(C)C(=O)[C@H](CC(=O)O)NC(=O)CNC(=O)[C@H](CCCNC(=N)N)NC(=O)CNC1=O` gave a Ratio IC50 of 0.2.
Work on `CC(C)C[C@H]1C(=O)NCC(=O)N[C@@H](CCCNC(=N)N)C(=O)NCC(=O)N[C@@H](CC(=O)O)C(=O)N(C)[C@H](Cc2ccccc2)C(=O)N1C` yielded a Ratio IC50 of 2.
For `CC(C)C[C@@H]1NC(=O)[C@@H](Cc2ccccc2)NC(=O)[C@H](CC(=O)O)NC(=O)CNC(=O)[C@H](CCCNC(=N)N)NC(=O)CNC1=O` (cyclo(GRGD[dF]L)), the Ratio IC50 was 0.5.
Compound `CC(C)C[C@H]1C(=O)NCC(=O)N(C)[C@@H](CCCNC(=N)N)C(=O)NCC(=O)N[C@@H](CC(=O)O)C(=O)N[C@H](Cc2ccccc2)C(=O)N1C` has a Ratio IC50 of 86.
Work on `CC(C)C[C@@H]1NC(=O)[C@@H](Cc2ccccc2)N(C)C(=O)[C@H](CC(=O)O)NC(=O)CNC(=O)[C@H](CCCNC(=N)N)N(C)C(=O)CNC1=O` yielded a Ratio IC50 of 16.
`CC(C)C[C@H]1C(=O)NCC(=O)N(C)[C@@H](CCCNC(=N)N)C(=O)NCC(=O)N[C@@H](CC(=O)O)C(=O)N(C)[C@H](Cc2ccccc2)C(=O)N1C` gave a Ratio IC50 of 406.
With `CC(C)C[C@@H]1NC(=O)[C@@H](Cc2ccccc2)NC(=O)[C@H](CC(=O)O)NC(=O)CNC(=O)[C@H](CCCNC(=N)N)N(C)C(=O)CNC1=O` the Ratio IC50 was 64.
`CC(C)C[C@H]1C(=O)NCC(=O)N[C@@H](CCCNC(=N)N)C(=O)NCC(=O)N[C@@H](CC(=O)O)C(=O)N[C@H](Cc2ccccc2)C(=O)N1C` showed a Ratio IC50 of 0.2.

Target: Integrin alpha-5/beta-1 (Homo sapiens, UniProt P05556+P08648)
Sequence (P05556 21-798 limits assumed): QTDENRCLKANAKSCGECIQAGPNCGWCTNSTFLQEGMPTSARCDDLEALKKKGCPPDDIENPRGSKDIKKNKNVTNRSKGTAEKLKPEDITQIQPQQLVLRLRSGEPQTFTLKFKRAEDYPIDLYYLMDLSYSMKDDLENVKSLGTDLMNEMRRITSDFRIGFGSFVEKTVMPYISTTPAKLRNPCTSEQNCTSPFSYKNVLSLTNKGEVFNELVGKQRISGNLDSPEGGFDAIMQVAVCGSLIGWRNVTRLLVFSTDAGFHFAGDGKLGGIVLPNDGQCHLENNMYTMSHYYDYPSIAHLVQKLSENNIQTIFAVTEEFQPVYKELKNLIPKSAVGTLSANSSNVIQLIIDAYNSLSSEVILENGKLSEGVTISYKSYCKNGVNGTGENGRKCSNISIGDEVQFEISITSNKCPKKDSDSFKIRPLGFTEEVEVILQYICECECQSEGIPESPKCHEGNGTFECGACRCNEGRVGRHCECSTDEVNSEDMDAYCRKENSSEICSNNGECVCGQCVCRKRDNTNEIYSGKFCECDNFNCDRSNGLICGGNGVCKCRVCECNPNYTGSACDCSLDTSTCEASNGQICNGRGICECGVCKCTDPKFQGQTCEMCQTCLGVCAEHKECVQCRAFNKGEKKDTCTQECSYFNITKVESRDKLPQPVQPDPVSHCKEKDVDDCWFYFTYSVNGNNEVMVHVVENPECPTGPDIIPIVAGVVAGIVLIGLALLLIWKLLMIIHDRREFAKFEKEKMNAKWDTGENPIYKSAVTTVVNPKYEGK
Sequence (P08648 42-894 limits assumed): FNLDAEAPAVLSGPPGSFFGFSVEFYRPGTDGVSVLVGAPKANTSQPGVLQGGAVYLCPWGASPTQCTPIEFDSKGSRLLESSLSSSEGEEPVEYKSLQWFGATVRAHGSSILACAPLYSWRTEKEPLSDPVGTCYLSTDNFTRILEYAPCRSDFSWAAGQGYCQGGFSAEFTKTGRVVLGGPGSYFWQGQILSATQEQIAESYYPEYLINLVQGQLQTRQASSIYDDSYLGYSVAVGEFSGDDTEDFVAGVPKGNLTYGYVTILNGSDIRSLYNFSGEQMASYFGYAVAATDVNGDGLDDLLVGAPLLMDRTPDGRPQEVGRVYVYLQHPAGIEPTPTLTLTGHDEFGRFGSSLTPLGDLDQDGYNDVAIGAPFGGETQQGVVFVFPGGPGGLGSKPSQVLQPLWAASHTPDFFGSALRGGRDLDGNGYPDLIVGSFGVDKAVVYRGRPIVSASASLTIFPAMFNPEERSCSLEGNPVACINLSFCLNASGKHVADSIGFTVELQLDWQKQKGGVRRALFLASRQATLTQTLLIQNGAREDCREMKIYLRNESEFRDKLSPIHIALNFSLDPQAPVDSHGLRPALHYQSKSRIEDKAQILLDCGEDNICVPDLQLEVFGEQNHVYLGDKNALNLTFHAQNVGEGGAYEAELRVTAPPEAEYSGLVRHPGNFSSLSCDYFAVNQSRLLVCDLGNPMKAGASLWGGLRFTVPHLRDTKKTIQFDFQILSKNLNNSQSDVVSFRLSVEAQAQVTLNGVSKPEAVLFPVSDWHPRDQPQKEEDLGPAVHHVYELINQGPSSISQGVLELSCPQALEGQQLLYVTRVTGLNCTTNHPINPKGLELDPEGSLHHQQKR
Sequence (P08648 895-1049 limits assumed): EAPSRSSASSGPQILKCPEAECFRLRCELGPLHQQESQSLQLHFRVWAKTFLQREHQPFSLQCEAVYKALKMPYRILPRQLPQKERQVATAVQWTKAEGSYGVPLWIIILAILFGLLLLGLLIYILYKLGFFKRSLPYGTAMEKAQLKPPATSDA
Assay: Binding affinity to integrin alpha-5-beta-1 receptor by solid phase binding assay
Assay type: protein-complex assay
Compound `CC(C)C[C@@H]1NC(=O)[C@@H](Cc2ccccc2)NC(=O)[C@H](CC(=O)O)NC(=O)CNC(=O)[C@H](CCCN=C(N)N)N(C)C(=O)CNC1=O` has an IC50 of 1200 nM.
`CC(C)C[C@H]1C(=O)NCC(=O)N[C@@H](CCCN=C(N)N)C(=O)NCC(=O)N[C@@H](CC(=O)O)C(=O)N[C@H](Cc2ccccc2)C(=O)N1C` showed an IC50 of 3900 nM.
In the case of `CC(C)C[C@H]1C(=O)NCC(=O)N[C@@H](CCCN=C(N)N)C(=O)NCC(=O)N[C@@H](CC(=O)O)C(=O)N(C)[C@H](Cc2ccccc2)C(=O)N1C`, the IC50 is reported as over 20000 nM.
Work on `CC(C)C[C@@H]1NC(=O)[C@@H](Cc2ccccc2)NC(=O)[C@H](CC(=O)O)NC(=O)CNC(=O)[C@H](CCCNC(=N)N)NC(=O)CNC1=O` (cyclo(GRGD[dF]L)) yielded an IC50 of 740 nM.
For `CC(C)C[C@@H]1NC(=O)[C@@H](Cc2ccccc2)N(C)C(=O)[C@H](CC(=O)O)NC(=O)CNC(=O)[C@H](CCCN=C(N)N)NC(=O)CNC1=O`, the IC50 was 4300 nM.
With `CC(C)C[C@H]1C(=O)NCC(=O)N(C)[C@@H](CCCNC(=N)N)C(=O)NCC(=O)N[C@@H](CC(=O)O)C(=O)N[C@H](Cc2ccccc2)C(=O)N1C` the IC50 was 20000 nM.
For `CC(C)C[C@@H]1NC(=O)[C@@H](Cc2ccccc2)N(C)C(=O)[C@H](CC(=O)O)NC(=O)CNC(=O)[C@H](CCCNC(=N)N)N(C)C(=O)CNC1=O`, the IC50 was over 20000 nM.
`CC(C)C[C@H]1C(=O)NCC(=O)N(C)[C@@H](CCCN=C(N)N)C(=O)NCC(=O)N[C@@H](CC(=O)O)C(=O)N(C)[C@H](Cc2ccccc2)C(=O)N1C` gave an IC50 of over 20000 nM.
